According to patent publication US8846699B2, “Quinazoline derivatives as a multiplex inhibitor and method for the preparation thereof” (Hanmi Pharm. Co., Ltd., priority 2005, dated 2014):

Tests used:
[1] = system: Human Umbilical Vein Endothelial Cell (HUVEC); assay: Inhibitory effect on growth of human umbilical vein endothelial cell (HUVEC), MTS; format: cell-based; conditions: 10 ng/ml VEGF, absorbance 490 nm
VEGFR2 (KDR) = VEGFR2 (KDR) (Homo sapiens (Human), UniProt P35968); assay: VEGFR2 (KDR) enzyme assay, fluorescence polarization; format: biochemical; conditions: 5 μM ATP, poly(Glu, Tyr) substrate
Method in brief: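 Buffer: 20 mM HEPES pH 7.4 with 5 mM MgCl2, 2 mM MnCl2 and 50 μM Na3VO4. Compound (0.0001–10 μM) was premixed 10 min with VEGFR2 (200 ng/10 μl), then poly(Glu,Tyr) substrate (10 ng/ml) and 5 μM ATP were added for 1 h at room temperature. EDTA-quenched samples were read by FP after 30 min with antibody and tracer.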

EGFR1 (HER-1) = EGFR1 (HER-1) (Homo sapiens (Human), UniProt P00533); assay: EGFR1 (HER-1) enzyme assay, fluorescence polarization; format: biochemical; conditions: 100 μM ATP, poly(Glu, Tyr) substrate
[2] = system: skin cancer cell line, A431; assay: Inhibitory effect on growth of cancer cell line A431, SRB; format: cell-based; conditions: overexpressed EGFR1 (HER-1)
Method in brief: (§1)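 Growth inhibition was measured by sulforhodamine-B staining (absorbance 570 nm) of TCA-fixed cells after 72 h compound exposure at 37 °C, 5% CO2. Test concentrations ran from 10 μM in 10-fold steps to 10^−4, with DMSO below 1%, in 10% FBS DMEM.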

[3] = system: breast cancer cell line, SK-Br3; assay: Inhibitory effect on growth of cancer cell line SK-Br3, SRB; format: cell-based; conditions: overexpressed EGFR2 (HER-2)
Method in brief: as §1

[4] = system: colon and rectal cancer cell line, SW-620; assay: Inhibitory effect on growth of cancer cell line SW-620, SRB; format: cell-based; conditions: not having overexpressed EGFR and EGFR2
Method in brief: as §1

Chain of VEGFR2 (KDR) (P35968 20-1356): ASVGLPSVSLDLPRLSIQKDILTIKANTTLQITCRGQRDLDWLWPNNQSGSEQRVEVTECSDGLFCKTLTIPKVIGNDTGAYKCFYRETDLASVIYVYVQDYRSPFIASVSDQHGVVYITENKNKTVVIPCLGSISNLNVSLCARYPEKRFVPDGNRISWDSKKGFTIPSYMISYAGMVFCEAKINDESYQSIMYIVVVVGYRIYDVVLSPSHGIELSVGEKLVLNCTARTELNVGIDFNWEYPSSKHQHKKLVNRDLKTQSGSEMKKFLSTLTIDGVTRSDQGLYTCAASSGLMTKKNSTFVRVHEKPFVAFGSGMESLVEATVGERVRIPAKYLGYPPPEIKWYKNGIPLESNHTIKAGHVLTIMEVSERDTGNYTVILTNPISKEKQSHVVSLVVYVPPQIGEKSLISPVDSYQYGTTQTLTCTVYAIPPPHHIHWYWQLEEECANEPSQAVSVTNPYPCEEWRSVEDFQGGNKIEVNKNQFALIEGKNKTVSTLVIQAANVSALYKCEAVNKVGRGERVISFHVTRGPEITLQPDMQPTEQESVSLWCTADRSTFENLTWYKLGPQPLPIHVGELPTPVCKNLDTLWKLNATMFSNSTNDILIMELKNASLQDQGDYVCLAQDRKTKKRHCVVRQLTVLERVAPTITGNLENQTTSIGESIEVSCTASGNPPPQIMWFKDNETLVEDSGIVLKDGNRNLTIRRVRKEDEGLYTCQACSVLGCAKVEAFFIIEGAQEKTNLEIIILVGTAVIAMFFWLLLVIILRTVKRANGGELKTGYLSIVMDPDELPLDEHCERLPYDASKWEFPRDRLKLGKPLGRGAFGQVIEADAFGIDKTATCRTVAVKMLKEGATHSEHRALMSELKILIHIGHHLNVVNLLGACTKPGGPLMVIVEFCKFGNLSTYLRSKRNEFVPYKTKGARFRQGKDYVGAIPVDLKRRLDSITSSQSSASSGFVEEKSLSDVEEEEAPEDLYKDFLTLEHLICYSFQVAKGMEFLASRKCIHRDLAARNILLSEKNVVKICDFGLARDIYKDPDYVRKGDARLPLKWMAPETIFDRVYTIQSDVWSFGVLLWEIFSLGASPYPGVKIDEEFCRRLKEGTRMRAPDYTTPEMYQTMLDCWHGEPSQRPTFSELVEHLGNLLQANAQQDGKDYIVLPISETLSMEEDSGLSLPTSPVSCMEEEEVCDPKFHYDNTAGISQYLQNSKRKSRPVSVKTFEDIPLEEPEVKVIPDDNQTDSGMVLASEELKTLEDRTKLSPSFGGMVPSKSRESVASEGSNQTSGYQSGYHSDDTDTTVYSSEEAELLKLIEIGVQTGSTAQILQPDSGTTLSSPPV

Molecule	IC50 (VEGFR2 (KDR)) [nM]	IC50 (EGFR1 (HER-1)) [nM]	IC50 ([2]; Homo sapiens, A-431, 72 h) [nM]	IC50 ([3]; Homo sapiens, SK-BR-3, 72 h) [nM]	IC50 ([4]; Homo sapiens, 72 h) [nM]	IC50 ([2]; 72 hours) [nM]	IC50 ([3]; 72 hours) [nM]	IC50 ([4]; 72 hours) [nM]	IC50 ([1]; Homo sapiens, 96 h) [nM]	IC50 ([1]; 96 hours) [nM]
N-{2-[6-acryloylamino-4-(4-bromo-2-fluoro-phenylamino)-quinazolin-7-yloxy]-ethyl}-4-dimethylamino-butylamide [Example 66]	125	21				11	103	10000		238
C=CC(=O)Nc1cc2c(Nc3ccc(Br)cc3F)ncnc2cc1OCCNC(=S)NCC [Example 36, N-{4-(4-bromo-2-fluoro-phenylamino)-7-[2-(3-ethyl-thioureido)-ethoxy]-quinazolin-6-yl}-acrylamide]	354	91	89	43	722				389	
C=CC(=O)NCCOc1cc2ncnc(Nc3ccc(Br)cc3F)c2cc1NC(=O)C=C [Example 26, N-{2-[6-acryloylamino-4-(4-bromo-2-fluoro-phenylamino)-quinazolin-7-yloxy]-ethyl}-acrylamide]	250	5	49	80	10000				87	
C=CC(=O)Nc1cc2c(Nc3ccc(Br)cc3F)ncnc2cc1OCCCNC(=O)NCC [Example 16, N-{4-(4-bromo-2-fluoro-phenylamino)-7-[3-(3-ethyl-ureido)-propoxy]-quinazolin-6-yl}-acrylamide]	208	11	18	228	10000				102	
N-{2-[6-acryloylamino-4-(4-bromo-2,3-difluoro-phenylamino)-quinazolin-7-oxy]-ethyl}-4-dimethylamino-butylamide [Example 127]	958	568				698	1020	6510		676

Now from value to molecule, other results behind:

IC50 (VEGFR2 (KDR)) [nM]	IC50 (EGFR1 (HER-1)) [nM]	IC50 ([2]; Homo sapiens, A-431, 72 h) [nM]	IC50 ([3]; Homo sapiens, SK-BR-3, 72 h) [nM]	IC50 ([4]; Homo sapiens, 72 h) [nM]	IC50 ([2]; 72 hours) [nM]	IC50 ([3]; 72 hours) [nM]	IC50 ([4]; 72 hours) [nM]	Molecule	IC50 ([1]; Homo sapiens, 96 h) [nM]	IC50 ([1]; 96 hours) [nM]
38	8	12	32	10000				C=CC(=O)Nc1cc2c(Nc3ccc(Br)c(Cl)c3F)ncnc2cc1OCCNC(=O)NCC [Example 168, N-{4-(4-bromo-3-chloro-2-fluoro-phenylamino)-7-[2-(3-ethyl-ureido)-ethoxy]-quinazolin-6-yl}-acrylamide]	117	
136	20	25	147	10000				C=CC(=O)Nc1cc2c(Nc3ccc(Br)cc3F)ncnc2cc1OCC1CCN(C(=O)NCC)CC1 [Example 171, 4-[6-acryloylamino-4-(4-bromo-2-fluoro-phenylamino)-quinazolin-7-yloxymethyl]-piperidine-1-carboxylic acid ethylamide]	150	
758	419	437	253	2960				C=CC(=O)Nc1cc2c(Nc3ccc(Cl)cc3F)ncnc2cc1OCCNC(=O)CN(C)C [Example 116, N-{4-(4-chloro-2-fluoro-phenylamino)-7-[2-(2-dimethylamino-acetylamino)-ethoxy]-quinazolin-6-yl}-acrylamide]	951	
486	32	41	103	2950				C=CC(=O)Nc1cc2c(Nc3ccc(Br)cc3F)ncnc2cc1OCCNC(=O)CN1CC=CC1 [Example 108, N-{4-(4-bromo-2-fluoro-phenylamino)-7-[2-(2-2,5-dihydro-pyrrol-1-yl-acetylamino)-ethoxy]-quinazolin-6-yl}-acrylamide]	497	
268	175	181	126	10000				C=CC(=O)Nc1cc2c(Nc3c(F)cc(Br)cc3F)ncnc2cc1OCCNC(=O)CN(C)C [Example 123, N-[4-(4-bromo-2,6-difluorophenylamino)-7-{2-[2-(dimethylamino)-acetamido]-ethoxy}-quinazolin-6-yl]-acrylamide]	328	
